Molecular target: T1, Orexin receptor type 2 (Homo sapiens, UniProt O43614)
T1 sequence (O43614 whole entry): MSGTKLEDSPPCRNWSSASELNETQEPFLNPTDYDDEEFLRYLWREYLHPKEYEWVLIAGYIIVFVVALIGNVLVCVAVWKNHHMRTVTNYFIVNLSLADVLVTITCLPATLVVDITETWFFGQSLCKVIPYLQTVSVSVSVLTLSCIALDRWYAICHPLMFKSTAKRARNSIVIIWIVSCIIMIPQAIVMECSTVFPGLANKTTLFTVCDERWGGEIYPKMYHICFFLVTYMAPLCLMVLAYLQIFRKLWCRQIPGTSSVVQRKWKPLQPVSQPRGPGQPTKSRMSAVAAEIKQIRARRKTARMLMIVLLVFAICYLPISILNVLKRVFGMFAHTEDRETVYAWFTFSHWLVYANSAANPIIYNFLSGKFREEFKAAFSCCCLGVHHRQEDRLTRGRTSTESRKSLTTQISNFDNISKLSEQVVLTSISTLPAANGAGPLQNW
Experiment: FLIPR Ca2+ Flux Assay: Assay methodology using FLIPR Ca2+ Flux Assay (Okumura et al., Biochem. Biophys. Res. Comm. 280:976-981, 2001).
Format: functional

COc1ccc(CNC(=O)c2cc(-c3cncc(C)c3)ncc2-c2ccccc2)nc1OC
Ki: 0.72 nM
